Reference: patent US12264173B2 (GILEAD SCIENCES, INC., priority 2020, dated 2025)
Where two headings read alike, the source gives them in different places.

Assays:
Assay type in all cases: cell-based
[1] = test system: RSV strain A2; test: microbe, parasite or virus in culture; details: Table 3, HEp-2 cells, RSV A2, 4 days, read-out: RSV HEp-2 EC50
Method in brief: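 Cytopathic-effect protection assay: HEp-2 cells (50,000/mL) infected with pre-titered RSV A2 onto 3-fold serial compound dilutions, incubated 4 days at 37° C. Cell viability read by CellTiter-Glo luminescence; percent inhibition derived against 0% and 100% virus-inhibition controls.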

[2] = test system: RSV A2; test: RSV NHBE EC50 (RSV A2 antiviral assay in NHBE cells); details: Table 3, NHBE cells, RSV A2, 4 days, read-out: RSV NHBE EC50
Method in brief: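 NHBE cells (7,500/well, passage ≤6) given 3-fold serially diluted compound (0.05% DMSO final), then infected with RSV A2 at 1×10^4.5 tissue culture infectious doses/mL. After 4 days at 37 °C, viability measured by CellTiter-Glo luminescence at 25 °C.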

[3] = test system: DENV2 replicon; test: DENV-2 Huh-7 Rep EC50 (replicon luminescence)
Method in brief: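 Huh-7 cells carrying a DENV2 replicon, 5,000 cells/well, were incubated with dosed compounds for 48 h at 37° C. EnduRen live-cell substrate was added 1.5 h before luminescence reading. EC50 came from dose-response against DMSO-only wells.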

[4] = test system: HRV16; test: HRV16 HeLa EC50 (cytopathic effect in H1-HeLa cells)
Method in brief: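 H1-HeLa cells seeded one day before, given 3-fold serial compound dilutions in triplicate just prior to infection with pre-titrated virus. Incubated 96 h at 33 °C/5% CO2; protection from cytopathic effect read as viability by CellTiter-Glo luminescence, normalised to infected untreated (0%) and uninfected (100%) controls.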

[5] = human respiratory syncytial virus, HEp-2, 96 h
[6] = human respiratory syncytial virus, NHBE, 96 h
[7] = Dengue virus, DENV2, Huh-7, 48 h, read-out: DENV-2 REP Huh7 EC50
[8] = 96 h, Table 3; H1-HeLa cells, 96 h; read-out: HRV16 HeLa EC50
[9] = Dengue virus, DENV2, Huh-7, 48 h, read-out: DENV-2 REP Huh7 EC50, Table 3, Huh-7 DENV2 replicon cells, 48 hours
[10] = Table 3, Huh-7 DENV2 replicon cells, 48 hours, read-out: DENV-2 REP Huh7 EC50
[11] = Table 3; H1-HeLa cells, 96 h; read-out: HRV16 HeLa EC50

Structure (SMILES) | EC50 [1, 5] | EC50 [2, 6] | EC50 [3, 7] | EC50 [4, 8] | EC50 [3, 9] | EC50 [1] | EC50 [2] | EC50 [3, 10] | EC50 [4, 11]
CO[C@@H](C)C(=O)O[C@H]1[C@H](c2ccc3c(N)ncnn23)O[C@](C#N)(CO[P@@](=O)(N[C@@H](C)C(=O)OC(C)C)Oc2ccccc2)[C@H]1OC(=O)[C@H](C)OC [Example 158, (2R,3S,4S,5S)-5-(4-aminopyrrolo[2,1-f][1,2,4]triazin-7-yl)-2-cyano-2-((((S)-(((S)-1-isopropoxy-1-oxopropan-2-yl)amino)(phenoxy)phosphoryl)oxy)methyl) tetrahydrofuran-3,4-diyl (2S,2'S)-bis(2-methoxypropanoate)] | 139 nM | 52 nM | 15700 nM | 731 nM | – | – | – | – | –
CCOC(=O)[C@H](C)N[P@](=O)(OC[C@@]1(C#N)O[C@@H](c2ccc3c(N)ncnn23)[C@H](OC(C)=O)[C@@H]1OC(C)=O)Oc1ccccc1 [Example 104, (2R,3S,4S,5S)-5-(4-aminopyrrolo[2,1-f][1,2,4]triazin-7-yl)-2-cyano-2-((((S)-(((S)-1-ethoxy-1-oxopropan-2-yl)amino)(phenoxy)phosphoryl)oxy)methyl) tetrahydrofuran-3,4-diyl diacetate] | 147 nM | 32 nM | 29100 nM | 703 nM | – | – | – | – | –
CCCCOC(=O)[C@H](C)NP(=O)(N[C@@H](C)C(=O)OCCCC)OC[C@@]1(C#N)O[C@@H](c2ccc3c(N)ncnn23)[C@H](OC(=O)CC)[C@@H]1OC(=O)CC [Example 193] | 610 nM | 125 nM | – | 1620 nM | 30000 nM | – | – | – | –
CCOC(=O)[C@H](C)NP(=O)(N[C@@H](C)C(=O)OCC)OC[C@@]1(C#N)O[C@@H](c2ccc3c(N)ncnn23)[C@H](OC(C)=O)[C@@H]1OC(C)=O [Example 134, ((2R,3S,4R,5S)-5-(4-aminopyrrolo[2,1-f][1,2,4]triazin-7-yl)-2-cyano-3,4-diacetatetetrahydrofuran-2-yl)methyl bis-ethyl L-alaninate phosphate] | 7340 nM | 1590 nM | – | > 50000 nM | > 50000 nM | – | – | – | –
CCC(=O)O[C@H]1[C@H](c2ccc3c(N)ncnn23)O[C@](C#N)(CO[P@@](=O)(N[C@@H](C)C(=O)OCC(CC)CC)Oc2ccccc2)[C@H]1OC(=O)CC [Example 180, (2R,3S,4S,5S)-5-(4-aminopyrrolo[2,1-f][1,2,4]triazin-7-yl)-2-cyano-2-((((S)-(((S)-1-(2-ethylbutoxy)-1-oxopropan-2-yl)amino)(phenoxy)phosphoryl)oxy)methyl) tetrahydrofuran-3,4-diyl dipropionate] | 62 nM | 31 nM | 8310 nM | 178 nM | – | – | – | – | –
CO[C@H](C)C(=O)O[C@H]1[C@H](c2ccc3c(N)ncnn23)O[C@](C#N)(CO[P@@](=O)(N[C@@H](C)C(=O)OC(C)C)Oc2ccccc2)[C@H]1OC(=O)[C@@H](C)OC [Example 154, (2R,3S,4S,5S)-5-(4-aminopyrrolo[2,1-f][1,2,4]triazin-7-yl)-2-cyano-2-((((S)-(((S)-1-isopropoxy-1-oxopropan-2-yl)amino)(phenoxy)phosphoryl)oxy)methyl) tetrahydrofuran-3,4-diyl (2R,2′R)-bis(2-methoxypropanoate)] | 185 nM | 114 nM | 20500 nM | 874 nM | – | – | – | – | –
C[C@H](NP(=O)(OC[C@@]1(C#N)O[C@@H](c2ccc3c(N)ncnn23)[C@H](OC(=O)C(C)(C)C)[C@@H]1OC(=O)C(C)(C)C)Oc1ccccc1)C(=O)OC1CCOCC1 (single isomer, unassigned) [Example 173] | – | – | – | – | – | 256 nM | 75 nM | 16100 nM | 519 nM
CO[C@H](C)C(=O)Nc1ncnn2c([C@@H]3O[C@](C#N)(CO[P@@](=O)(N[C@@H](C)C(=O)OC(C)C)Oc4ccccc4)[C@@H](OC(=O)[C@@H](C)OC)[C@H]3OC(=O)[C@@H](C)OC)ccc12 [Example 155, (2R,3S,4S,5S)-2-cyano-2-((((S)-(((S)-1-isopropoxy-1-oxopropan-2-yl)amino)(phenoxy)phosphoryl)oxy)methyl)-5-(4-((R)-2-methoxypropanamido)pyrrolo[2,1-f][1,2,4]triazin-7-yl)tetrahydrofuran-3,4-diyl (2R,2′R)-bis(2-methoxypropanoate)] | 437 nM | 294 nM | 29200 nM | 2680 nM | – | – | – | – | –
CC(C)OC(=O)[C@H](C)N[P@](=O)(OC[C@@]1(C#N)O[C@@H](c2ccc3c(N)ncnn23)[C@H](OC(=O)C2CCOCC2)[C@@H]1OC(=O)C1CCOCC1)Oc1ccccc1 [Example 156, (2R,3S,4S,5S)-5-(4-aminopyrrolo[2,1-f][1,2,4]triazin-7-yl)-2-cyano-2-((((S)-(((S)-1-isopropoxy-1-oxopropan-2-yl)amino)(phenoxy)phosphoryl)oxy)methyl) tetrahydrofuran-3,4-diyl bis(tetrahydro-2H-pyran-4-carboxylate)] | 456 nM | > 5000 nM | > 50000 nM | 21700 nM | – | – | – | – | –
CCC(=O)O[C@H]1[C@H](c2ccc3c(N)ncnn23)O[C@](C#N)(COP(=O)(N[C@@H](C)C(=O)OC2COC2)Oc2ccccc2)[C@H]1OC(=O)CC (single isomer, unassigned) [Example 175] | – | – | – | – | – | 87 nM | 17 nM | 9510 nM | 85 nM
CC(=O)O[C@H]1[C@H](c2ccc3c(N)ncnn23)O[C@](C#N)(CO[P@@](=O)(N[C@@H](C)C(=O)OCC2CC2)Oc2ccccc2)[C@H]1OC(C)=O [Example 102] | – | – | – | – | – | 178 nM | 18 nM | 39100 nM | 526 nM
CC(C)C(=O)O[C@H]1[C@H](c2ccc3c(N)ncnn23)O[C@](C#N)(COP(=O)(N[C@@H](C)C(=O)OC2CCC2)Oc2ccccc2)[C@H]1OC(=O)C(C)C (stereo partly drawn) [Example 197, (2R,3S,4S,5S)-5-(4-aminopyrrolo[2,1-f][1,2,4]triazin-7-yl)-2-cyano-2-((((((S)-1-cyclobutoxy-1-oxopropan-2-yl)amino)(phenoxy)phosphoryl)oxy)methyl) tetrahydrofuran-3,4-diyl bis(2-methylpropanoate)] | – | – | – | – | – | 28 nM | 33 nM | 4460 nM | 94 nM
CC(=O)O[C@H]1[C@H](c2ccc3c(N)ncnn23)O[C@](C#N)(CO[P@@](=O)(N[C@@H](C)C(=O)OCC2CCC2)Oc2ccccc2)[C@H]1OC(C)=O [Example 95] | – | – | – | – | – | 90 nM | 20 nM | 19800 nM | 429 nM
CC(=O)OC1[C@H](c2ccc3c(N)ncnn23)O[C@](C#N)(COP(=O)(N[C@@H](C)C(=O)OCC2CCOCC2)Oc2ccccc2)[C@H]1OC(C)=O (stereo in doubt) [Example 110, (2R,3S,4R,5S)-5-(4-aminopyrrolo[2,1-f][1,2,4]triazin-7-yl)-2-cyano-2-((((((S)-1-oxo-1-((tetrahydro-2H-pyran-4-yl)methoxy)propan-2-yl)amino)(phenoxy)phosphoryl)oxy)methyl)tetrahydrofuran-3,4-diyl diacetate] | 327 nM | 40 nM | 56300 nM | 2510 nM | – | – | – | – | –
COC(=O)[C@H](C)NP(=O)(OC[C@@]1(C#N)O[C@@H](c2ccc3c(N)ncnn23)[C@H](OC(=O)C(C)C)[C@@H]1OC(=O)C(C)C)Oc1ccccc1 (stereo partly drawn) [Example 138, (2R,3S,4S,5S)-5-(4-aminopyrrolo[2,1-f][1,2,4]triazin-7-yl)-2-cyano-2-((((((S)-1-methoxy-1-oxopropan-2-yl)amino)(phenoxy)phosphoryl)oxy)methyl)tetrahydrofuran-3,4-diyl bis(2-methylpropanoate)] | 63 nM | 17 nM | 5200 nM | 101 nM | – | – | – | – | –
CCOC(=O)[C@H](C)N[P@](=O)(OC[C@@]1(C#N)O[C@@H](c2ccc3c(N)ncnn23)[C@H](OC(=O)CC)[C@@H]1OC(=O)CC)Oc1ccccc1 [Example 105, (2R,3S,4S,5S)-5-(4-Aminopyrrolo[2,1-f][1,2,4]triazin-7-yl)-2-cyano-2-((((S)-(((S)-1-ethoxy-1-oxopropan-2-yl)amino)(phenoxy)phosphoryl)oxy)methyl) tetrahydrofuran-3,4-diyl dipropionate] | 57 nM | 13 nM | 12900 nM | 182 nM | – | – | – | – | –
CSCCOP(=O)(N[C@@H](C)C(=O)OC(C)C)OC[C@@]1(C#N)O[C@@H](c2ccc3c(N)ncnn23)[C@H](OC(=O)C(C)C)[C@@H]1OC(=O)C(C)C (stereo partly drawn) [Example 213, (2R,3S,4S,5S)-5-(4-aminopyrrolo[2,1-f][1,2,4]triazin-7-yl)-2-cyano-2-((((((S)-1-isopropoxy-1-oxopropan-2-yl)amino)(2-(methylthio)ethoxy)phosphoryl)oxy)methyl) tetrahydrofuran-3,4-diyl bis(2-methylpropanoate)] | 11800 nM | 2250 nM | – | 13100 nM | 23000 nM | – | – | – | –
